Active and inactive are the calls of the source.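 Rule for the calls: active = in confirmatory dose-response testing, peak deubiquitinase inhibition of 30% or more; inactive = the rest.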

The target in the test is Ubiquitin carboxyl-terminal hydrolase 28 (Homo sapiens) (UniProt Q96RU2). As to the kind of experiment: Ubiquitin-specific peptidase 28 DUB inhibitors, biochemical concentration-dependence assay, validation of primary screening hits (AID 1645866). The conditions noted are these: purified USP28, ubiquitin-rhodamine fluorescence, 30 min.
Sequence of Ubiquitin carboxyl-terminal hydrolase 28 (Homo sapiens) (Q96RU2 whole entry, looked up): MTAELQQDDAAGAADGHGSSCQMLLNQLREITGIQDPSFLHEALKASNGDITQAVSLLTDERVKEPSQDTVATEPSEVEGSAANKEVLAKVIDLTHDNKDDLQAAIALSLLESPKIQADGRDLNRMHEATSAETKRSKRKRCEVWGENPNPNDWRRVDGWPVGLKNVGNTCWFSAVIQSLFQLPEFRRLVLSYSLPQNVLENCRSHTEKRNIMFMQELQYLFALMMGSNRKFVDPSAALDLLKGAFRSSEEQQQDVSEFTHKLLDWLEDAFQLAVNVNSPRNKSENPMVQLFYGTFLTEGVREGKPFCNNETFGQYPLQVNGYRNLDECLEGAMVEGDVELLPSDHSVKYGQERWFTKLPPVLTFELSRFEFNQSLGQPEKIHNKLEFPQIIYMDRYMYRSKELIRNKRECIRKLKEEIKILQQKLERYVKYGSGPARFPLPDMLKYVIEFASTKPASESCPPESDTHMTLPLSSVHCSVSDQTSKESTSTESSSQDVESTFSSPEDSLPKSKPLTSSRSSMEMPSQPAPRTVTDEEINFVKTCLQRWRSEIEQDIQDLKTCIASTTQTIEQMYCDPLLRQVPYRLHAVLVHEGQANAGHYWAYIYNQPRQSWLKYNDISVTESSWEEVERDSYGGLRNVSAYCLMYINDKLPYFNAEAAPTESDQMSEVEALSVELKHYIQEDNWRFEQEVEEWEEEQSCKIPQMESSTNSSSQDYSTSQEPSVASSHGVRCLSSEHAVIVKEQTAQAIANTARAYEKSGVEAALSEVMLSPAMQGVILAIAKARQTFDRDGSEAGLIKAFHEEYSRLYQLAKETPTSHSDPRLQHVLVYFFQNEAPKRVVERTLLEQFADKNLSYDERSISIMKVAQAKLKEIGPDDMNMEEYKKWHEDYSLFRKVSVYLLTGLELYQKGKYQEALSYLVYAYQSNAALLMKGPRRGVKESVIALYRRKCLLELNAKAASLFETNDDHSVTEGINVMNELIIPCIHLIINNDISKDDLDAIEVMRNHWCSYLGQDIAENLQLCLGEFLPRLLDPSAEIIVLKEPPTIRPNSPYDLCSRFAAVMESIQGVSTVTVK

One may read the IC50 as the concentration that gives 50% inhibition. With `Cc1c(-c2nnc(-c3ccccn3)o2)nnn1-c1cccc(Cl)c1`, the IC50 was 25.6 µM.

As for `COc1ccc(CCNC(=O)CCCn2c(SCC(=O)NCc3ccco3)nc3ccccc3c2=O)cc1OC`, the IC50 was 35.7 µM.

With `Cn1c(-c2nnc(SCC(=O)NCCc3ccccc3)o2)cc2ccccc21`, the half-maximal inhibitory concentration (IC50) was 23.7 µM. For the compound `O=C(CSc1nc2cc(S(=O)(=O)Nc3ccccc3Cl)ccc2o1)Nc1ccc(N2CCOCC2)cc1`, the IC50 was 34.5 µM. In the case of `CCCCCCCCCC(CCCCCCCCCC(=O)O)O[C@H]1O[C@@H](COC(C)=O)[C@H](O)[C@@H](O)[C@H]1OC(=O)CC(=O)O` (stereo partly drawn) it was 18.4 µM; in that of `COc1ccc(CCNc2c(-c3ccccc3O)nc3cnccn23)cc1OC`, > 50 µM (inactive); in that of `Cc1ccc(OCCn2c(=N)n(C(C)C)c3ccccc32)cc1`, 2.13 µM. With `C/C1=C/CC(O)/C=C/C(C)C(O)C(C)/C=C(\C)C(=O)c2c(O)c(C)cc3c2C(=O)C(Cl)=C(NC(=O)\C=C/C=C/C=C\C(C)C(O)CC1=O)C3=O` (stereo not drawn), the IC50 is 31.3 µM. Turning to `CC(C)(C)n1ncc2c(=O)n(Cc3cccc([N+](=O)[O-])c3)cnc21`, the IC50 was 6.69 µM. Take `COc1cc(=O)c(C(=O)Nc2ccc(C#N)cc2)nn1-c1cccc(F)c1`: the IC50 is 20.7 µM. In the case of `CCOC(=O)c1nc(Nc2ccc(OC)c(Cl)c2)c2ccccc2n1` it was 26.5 µM; in that of `NS(=O)(=O)c1cc(C(=O)OCC(=O)NC2CCCc3ccccc32)ccc1Cl` (stereo not drawn), 31.2 µM.

For the compound `O=C1C[C@@H]2O[C@H](CNC(=O)[C@@H]3CN(CCN3C(=O)C3CCOCC3)C(=O)[C@@H]3C[C@@H](CN3Cc3ccc(F)c(F)c3)N1)[C@@H](O)[C@H]2O`, the IC50 was > 50 µM (inactive).

As for `COc1cnc(-c2ccccn2)nc1Sc1ccccc1Cl`, the IC50 is 10.9 µM.

`Nc1c(C(=O)NCCc2ccccc2)nnn1-c1ccc(F)cc1`: the IC50 was 42.5 µM. `Cc1cccc(C(=O)N2CCN3Cc4ccccc4N(C)CC3C2)c1` (stereo not drawn): the IC50 is > 50 µM (inactive). The result for `Fc1cccc(-n2cc(-c3noc(-c4ccc[nH]4)n3)nn2)c1` reads 27.5 µM. The result for `Cc1ccc(C(=O)NCC(=O)Nc2nc3ccccc3[nH]2)c(C)c1` reads 24.6 µM; that for `CCOC(=O)c1cc2c(ccn2C)n1CC(=O)N1CCc2ccccc2C1`, > 50 µM (inactive); that for `COCCNC(=O)c1ccn(-c2ccc3ccc(-c4ccncc4)cn23)n1`, > 50 µM (inactive). In the case of `COc1cc(Cl)ccc1Nc1ncc(C(=O)Nc2cc(OC)c(OC)c(OC)c2)c2ccccc12` it was under 0.05 µM. Take `COc1ccc(S(=O)(=O)N2CCN3Cc4ccccc4N(C)CC3C2)cc1` (stereo not drawn): the IC50 was > 50 µM (inactive). For `CCc1noc(Cn2cnc3c4ccccc4n(CC(=O)NC4CCCCC4)c3c2=O)n1`, the IC50 was 40 µM. On to `Cc1ccc2c(=O)c3c([nH]c2c1C)CCN(CC(=O)NCc1ccccc1)C3`, for which the IC50 was > 50 µM (inactive). Consider `CCn1c(=N)n(CCOc2ccc(F)cc2)c2ccccc21`, for which the IC50 is 0.588 µM.

On to `Cc1ccc(Nc2nc(C(=O)NCc3ccc4c(c3)OCO4)cc3occc23)cc1Cl`, for which the IC50 is 19 µM. In the case of `O=C1CC(O)C(O)c2cccc(O)c21` (stereo not drawn), the IC50 is 23.6 µM. The result for `COc1ccc(C2SCC(=O)Nc3c2c(=O)[nH]n3C2CCCCCC2)cc1` (stereo not drawn) reads 25.7 µM; that for `O=C(Cn1cc(C(=O)C2CC2)c2ccccc21)NCc1ccc2c(c1)OCO2`, 24.9 µM. Consider `Cc1cccc(NC(=O)Cn2c(-c3cnccn3)nc(C)c(C)c2=O)c1C`, for which the IC50 was > 50 µM (inactive).

For `O=C(NCc1ccc2c(c1)OCO2)c1cc2c(s1)-c1ccccc1OC2`, the IC50 is 7.07 µM. In the case of `CC(C)NS(=O)(=O)c1ccc(OCC(=O)N2CCC(Cc3ccccc3)CC2)cc1` it was 5.5 µM; in that of `O=C(COc1ccc2ccccc2c1)Nc1cccc2ccccc12`, 22.4 µM. As to `O=C(CN1C=NC2=NS(=O)(=O)c3ccccc3N21)Nc1cc(F)ccc1F`, the IC50 is 28 µM. In the case of `Cc1noc(-c2ccc(N3CCCC(C(=O)NCc4ccc(F)cc4)C3)nc2)n1` (stereo not drawn) it was 20.3 µM; in that of `O=C(Nc1ccc2c(c1)OCCO2)c1cc(CN2CCCC2)on1`, 9.81 µM. In the case of `CCC(C(=O)NCc1ccncc1)N(c1cccc(Cl)c1)S(C)(=O)=O` (stereo not drawn) it was > 50 µM (inactive); in that of `Cc1oc(-c2ccc(C(=O)NCC3COCCO3)cc2)nc1CN1CCc2ccccc21` (stereo not drawn), 38.8 µM. As to `Cc1nn(-c2ccccc2)c(C)c1C(=O)OCC(=O)Nc1cccc(Br)c1`, the IC50 is 2.72 µM. The result for `CSc1ccccc1NC(=O)c1ccc(-n2cccn2)nn1` reads 5.75 µM; that for `COc1ccc(Cl)cc1NC(=O)c1cc(-c2ccccn2)n[nH]1`, 0.547 µM; that for `COc1ccc(-c2cc3nc([C@H](C)NC(=O)Cc4cccc(F)c4)nn3cn2)cc1`, 13 µM. On to `CCOc1ccc2nc(NC(=O)C3CCN(S(=O)(=O)c4ccc5c(c4)CC(C)N5C(C)=O)CC3)sc2c1` (stereo not drawn), for which the IC50 was > 50 µM (inactive). The result for `Cc1cccc(C(=O)Nc2cccc(SC(C(=O)Nc3ccc(Cl)c(C(=O)O)c3)c3ccccc3)c2)c1` (stereo not drawn) reads 15.3 µM. The result for `Cc1cc(C(F)(F)F)n(-c2ccc(NC(=O)Nc3cccc(C(F)(F)F)c3)cc2)n1` reads 5.05 µM.

As to `Cc1cccc(C(=O)Nc2ccc3c(c2)nc(CSc2nccc(C)n2)n3C)c1`, the IC50 is under 0.05 µM.

Consider `CC(C)N1CC2CN(C(=O)c3ccccc3)CCN2Cc2ccccc21` (stereo not drawn), for which the IC50 was > 50 µM (inactive).

On to `COc1ccc(C2/C(=C(\O)c3ccccc3)C(=O)C(=O)N2c2nc3ccc(F)cc3s2)cc1` (stereo not drawn), for which the IC50 is 21.6 µM. As for `CN1C(=O)[C@]23CC4=CC=C[C@H](O)[C@H]4N2C(=O)[C@@]1(CO)SS3`, the IC50 is > 50 µM (inactive). In the case of `Cc1ccc(NC(=O)c2cnc3c(c2)c(=O)n(C)c(=O)n3C)cc1` it was 2.07 µM; in that of `COc1ccc(C2C(C(=O)C(C)(C)C)N3c4ccccc4C=CC3C23C(=O)c2ccccc2C3=O)c(OC)c1` (stereo not drawn), > 50 µM (inactive); in that of `CC1=CN2C(=N)/C(=C/c3cn(Cc4ccc(Cl)cc4)c4ccccc34)C(=O)N=C2S1`, > 50 µM (inactive). As to `N#C/C(=C/c1sc(N2CCOCC2)nc1-c1ccccc1)c1ccccn1`, the IC50 is > 50 µM (inactive). In the case of `Cc1ccc2[nH]c(=O)c(CN(CC3CCCO3)S(=O)(=O)c3ccccc3)cc2c1` (stereo not drawn) it was 24.7 µM; in that of `O=C(Cc1cccnc1)Nc1ccc(N2CCN(C3CCCCC3)C2=O)nc1`, > 50 µM (inactive); in that of `COC1=CC(=O)c2c(O)c3c(c(C)c2C1=O)C[C@@]1(O)[C@H](O[C@H]2CC[C@H](O[C@H]4C[C@@](C)(O)[C@H](OC(=O)c5c(C)ccc(C)c5O)[C@H](C)O4)[C@@H](C)O2)C(=O)C(C(C)=O)=C(O)[C@@]1(O)C3=O`, 2.27 µM. In the case of `O=C(c1ccc2cc[nH]c2c1)N1CCC(Nc2cccnc2)C1` (stereo not drawn) it was > 50 µM (inactive); in that of `COc1ccc(C(=O)Nc2ccc3c(c2)Sc2ncccc2C(=O)N3C)cn1`, > 50 µM (inactive). With `COc1ccc2[nH]cc(S(=O)(=O)c3ccc(C)c(F)c3)c(=O)c2c1`, the IC50 was 24.1 µM. In the case of `Cc1cc(-n2c(C)cc(-c3csc(N)n3)c2C)no1` it was > 50 µM (inactive); in that of `Cc1c(CC(=O)Nc2nn[nH]n2)c(=O)oc2cc3c(cc12)CCC1(CCCCC1)O3`, > 50 µM (inactive). With `O=C(Nc1nc2c(ccc3ccccc32)s1)c1cccc(Br)c1`, the IC50 was 9.32 µM. On to `Fc1ccccc1Cc1nc(-c2ccc3nncn3c2)no1`, for which the IC50 was 9.69 µM. For `Cc1ccc2cc(CNc3ccccc3)c(=O)n(CC(=O)Nc3ccccc3C)c2c1`, the concentration for half-maximal inhibition (IC50) is 18.6 µM.

Take `O=C1Cc2ccccc2C(=O)N1c1ccc2c(c1)OCO2`: the IC50 is 24.3 µM.

With `COc1ccccc1C(=O)N1CCC(S(=O)(=O)c2ccc(-c3ccco3)cc2)CC1`, the IC50 is 42.9 µM. The result for `CCCCc1nc2sc3c(NCCN4CCOCC4)ncnc3c2c2c1CCC2` reads 0.549 µM; that for `O=C(COc1ccc2c(c1)CCC2)Nc1ccc2c(c1)CCC2`, 37.7 µM. In the case of `CC(=O)c1cccc(NC(=O)c2ccc(CN(c3ccc(C)c(C)c3)S(C)(=O)=O)cc2)c1` it was 2.2 µM; in that of `CCOC(=O)c1c(C)oc2nc(CSc3ccccc3)[nH]c(=O)c12`, 17 µM. The result for `Cc1ccc(Cn2nnc(C(=O)NCc3ccco3)c2-n2cccc2)cc1` reads 6.49 µM. As for `Cc1cccc(NC(=O)c2nn(C)c3ccccc3c2=O)c1`, the IC50 is 16.5 µM.

For `CSc1ncccc1C(=O)NC1(O)C(=O)c2ccccc2C1=O`, the IC50 was 29 µM.

As to `O=C(CCCCn1c(=O)c2ccccc2n(CC(=O)Nc2ccc(F)c(Cl)c2)c1=O)NCc1ccco1`, the IC50 is > 50 µM (inactive). The result for `Cc1ccc(Cn2cc(-c3noc(-c4ccncc4)n3)nn2)cc1` reads 36.9 µM.

Regarding `O=[N+]([O-])c1ccc(N2CCN(c3ncnc4c3[nH]c3ccc(F)cc34)CC2)cc1`, the IC50 was 0.225 µM.

`COc1cccc(NC(=O)c2cnc3c(c2)c(=O)n(C)c(=O)n3C)c1`: the concentration for half-maximal inhibition (IC50) was 2.43 µM. For `Cc1nc(N2CCCC2)ncc1C(=O)Nc1ccc(F)c(F)c1`, the IC50 is 32.9 µM. The result for `O=C(CNC(=O)c1cc2ccccc2o1)Nc1ccc2c(c1)OCCO2` reads 18.3 µM; that for `COc1ccc(-c2cnnn2-c2ccc(NC(=O)c3c(F)cccc3F)cc2)cc1OC`, > 50 µM (inactive); that for `N#Cc1ccccc1Cn1c(=O)n(CCCCC(=O)NCCc2ccccc2)c(=O)c2ccccc21`, 19.6 µM. For the compound `CCOc1ccc2c(c1)c(=O)c(C(=O)c1ccccc1)cn2CC(=O)Nc1ccccc1`, the IC50 is 9.83 µM. In the case of `COc1cccc(C(=O)Nc2ccc(-n3cnnn3)cc2)c1` it was 21.7 µM; in that of `CCOc1cc(C2C3=C(CC(C)(C)CC3=O)Nc3onc(C)c32)ccc1O` (stereo not drawn), 37.5 µM. The result for `COc1cc(NC(=O)COC(=O)Cn2cnc3ccccc32)cc(OC)c1` reads 40 µM; that for `CCCCN1CC(C(=O)Nc2ccc(C(=O)Nc3ccc(F)c(Cl)c3)cc2)CC1=O` (stereo not drawn), 34.2 µM; that for `Cn1c(=O)c2cc(C(=O)Nc3ccc(F)cc3)cnc2n(C)c1=O`, 20.8 µM. As to `O=C(Cc1ccccc1F)Nc1nc(-c2ccco2)c(-c2ccco2)s1`, the IC50 was > 50 µM (inactive).
